According to article PMC4312240 (Bioorganic & medicinal chemistry, 2014):

Experiments:
HBV [1] = test: Anti-HBV activity in HepG2 cells; type: cell-based; conditions: for Anti-HBV potency compared with DAPD prodrug 5: comparison in words
HIV = conditions: in words; cited from earlier work
HBV [2] = conditions: in words; cited from earlier work

(2S)-Ethyl 2-(((((2R,4R)-4-(2-amino-6-palmitamido-9H-purin-9-yl)-1,3-dioxolan-2-yl)methoxy)(phenoxy)phosphoryl)amino)propanoate [Compound 10h]
Anti-HBV potency compared with DAPD prodrug 5 (HBV [1]): in the same range as DAPD prodrug 5

(2S)-Ethyl 2-(((((2R,4R)-4-(2-amino-6-tetradecanamido-9H-purin-9-yl)-1,3-dioxolan-2-yl)methoxy)(phenoxy)phosphoryl)amino)propanoate [Compound 10g]
Anti-HBV potency compared with DAPD prodrug 5 (HBV [1]): in the same range as DAPD prodrug 5

(2S)-ethyl 2-(((((2R,4R)-4-(2-amino-6-hydroxy-9H-purin-9-yl)-1,3-dioxolan-2-yl)methoxy)(phenoxy)phosphoryl)amino)propanoate [Compound 5]
Factor of increase in potency against HBV compared with DAPD (HBV [1]; ratio of EC50 values, DAPD vs prodrug): 40

(−)-β-D-(2R,4R)-1,3-dioxolane-2-amino-6-aminopropyl purine nucleoside phosphoramidate prodrug [Compound 4]
Activity against HIV (HIV): submicromolar | Activity against HBV (HBV [2]): submicromolar
